# According to publication PMC7216583 (Parasites & Vectors, 2020):
# Where a name gives a salt, the structure may show the parent alone.
# Columns and labels:
# [1] = tested on: Toxoplasma gondii RH-2F tachyzoites; experiment: microbe, parasite or virus in culture; details: 72 h, read-out: Parasite inhibition (%) mean, preliminary screen of compound library, mean
# [2] = tested on: PI3Kγ; set-up: method as in S-inhibitor catalog; details: vendor brief description; ref S-inhibitor catalog; cited from earlier work
# [3] = molecular target: muscarinic receptor; set-up: method as in S-inhibitor catalog; details: vendor brief description; ref S-inhibitor catalog; read-out: Kb, muscarinic receptor antagonist; cited from earlier work
# [4] = tested on: human DGAT-1; set-up: method as in S-inhibitor catalog; details: vendor brief description; ref S-inhibitor catalog; cited from earlier work
# [5] = tested on: mouse DGAT-1; set-up: method as in S-inhibitor catalog; details: vendor brief description; ref S-inhibitor catalog; cited from earlier work
# [6] = molecular target: PKA; set-up: method as in S-inhibitor catalog; details: vendor brief description; ref S-inhibitor catalog; cited from earlier work
# [7] = molecular target: HIV-1 gp120 / CD4 receptor; set-up: method as in S-inhibitor catalog; details: in virus; vendor brief description; ref S-inhibitor catalog; read-out: EC50, inhibition of binding of HIV-1 gp120 to CD4 receptor; cited from earlier work
# [8] = tested on: Akt2; set-up: method as in S-inhibitor catalog; details: vendor brief description; ref S-inhibitor catalog; cited from earlier work
# [9] = molecular target: hydroxymethylglutaryl coenzyme A reductase (HMGCR); set-up: method as in S-inhibitor catalog; details: vendor brief description; ref S-inhibitor catalog; cited from earlier work
# [10] = tested on: HL60 cell line; set-up: method as in S-inhibitor catalog; details: vendor brief description; ref S-inhibitor catalog; read-out: IC50, inhibition of growth of HL60; cited from earlier work
# [11] = tested on: MDA-MB-435 cell line; set-up: method as in S-inhibitor catalog; details: vendor brief description; ref S-inhibitor catalog; read-out: IC50, inhibition of growth of MDA-MB-435; cited from earlier work
# [12] = tested on: HeLa cell line; set-up: method as in S-inhibitor catalog; details: vendor brief description; ref S-inhibitor catalog; read-out: IC50, inhibition of growth of HeLa; cited from earlier work
# [13] = tested on: H14 cell line; set-up: method as in S-inhibitor catalog; details: vendor brief description; ref S-inhibitor catalog; read-out: IC50, inhibition of growth of H14; cited from earlier work
# [14] = tested on: CDK6; set-up: method as in S-inhibitor catalog; details: vendor brief description; ref S-inhibitor catalog; cited from earlier work
# [15] = tested on: CDK4; set-up: method as in S-inhibitor catalog; details: vendor brief description; ref S-inhibitor catalog; cited from earlier work
# [16] = tested on: CDK7; set-up: method as in S-inhibitor catalog; details: vendor brief description; ref S-inhibitor catalog; cited from earlier work
# [17] = tested on: CDK1; set-up: method as in S-inhibitor catalog; details: vendor brief description; ref S-inhibitor catalog; cited from earlier work
# [18] = tested on: PDE4B; set-up: method as in S-inhibitor catalog; details: vendor brief description; ref S-inhibitor catalog; cited from earlier work
# [19] = tested on: MEK2; set-up: method as in S-inhibitor catalog; details: vendor brief description; ref S-inhibitor catalog; cited from earlier work
# [20] = molecular target: p110β; set-up: method as in S-inhibitor catalog; details: vendor brief description; ref S-inhibitor catalog; cited from earlier work
# [21] = tested on: LXRα/SRC1; set-up: method as in S-inhibitor catalog; details: vendor brief description; ref S-inhibitor catalog; read-out: EC50, LXRα/SRC1 LiSA; cited from earlier work
# [22] = tested on: LXRα-GAL4; set-up: method as in S-inhibitor catalog; details: vendor brief description; ref S-inhibitor catalog; cited from earlier work
# [23] = tested on: ALK3; set-up: method as in S-inhibitor catalog; details: vendor brief description; ref S-inhibitor catalog; cited from earlier work
# [24] = tested on: ALK2; set-up: method as in S-inhibitor catalog; details: vendor brief description; ref S-inhibitor catalog; cited from earlier work
# [25] = molecular target: 5-HT1D; set-up: method as in S-inhibitor catalog; details: vendor brief description; ref S-inhibitor catalog; cited from earlier work
# [26] = molecular target: Aβ40 production (γ-secretase); set-up: method as in S-inhibitor catalog; details: in human SH-SY5Y cells; vendor brief description; ref S-inhibitor catalog; read-out: IC50, reduction of Aβ40 production; cited from earlier work
# [27] = tested on: MDMX; set-up: method as in S-inhibitor catalog; details: vendor brief description; ref S-inhibitor catalog; read-out: IC50, MDMX suppression; cited from earlier work
# [28] = tested on: PI3K; set-up: method as in S-inhibitor catalog; details: vendor brief description; ref S-inhibitor catalog; cited from earlier work
# [29] = tested on: DNA-PK; set-up: method as in S-inhibitor catalog; details: vendor brief description; ref S-inhibitor catalog; cited from earlier work
# [30] = tested on: mTORC2; set-up: method as in S-inhibitor catalog; details: vendor brief description; ref S-inhibitor catalog; cited from earlier work
# [31] = tested on: mTORC1; set-up: method as in S-inhibitor catalog; details: vendor brief description; ref S-inhibitor catalog; cited from earlier work
# [32] = molecular target: HSP90; set-up: method as in S-inhibitor catalog; details: vendor brief description; ref S-inhibitor catalog; cited from earlier work
# [33] = tested on: Her-2 degradation; set-up: method as in S-inhibitor catalog; details: vendor brief description; ref S-inhibitor catalog; cited from earlier work
# [34] = tested on: α7 nAChR; set-up: method as in S-inhibitor catalog; details: in α7*-expressing SH-EP1 cells; vendor brief description; ref S-inhibitor catalog; read-out: EC50, α7 nAChR positive allosteric modulation; cited from earlier work
# [35] = tested on: Syk; set-up: method as in S-inhibitor catalog; details: vendor brief description; ref S-inhibitor catalog; cited from earlier work
# [36] = tested on: GPR40; set-up: method as in S-inhibitor catalog; details: vendor brief description; ref S-inhibitor catalog; read-out: EC50, GPR40 agonist; cited from earlier work
# [37] = tested on: AVP-induced platelet aggregation; set-up: method as in S-inhibitor catalog; details: vendor brief description; ref S-inhibitor catalog; read-out: IC50, inhibition of AVP-induced platelet aggregation; cited from earlier work
# [38] = tested on: FAAH; set-up: method as in S-inhibitor catalog; details: vendor brief description; ref S-inhibitor catalog; cited from earlier work
# [39] = molecular target: 5-HT Receptor; set-up: method as in S-inhibitor catalog; details: vendor brief description; ref S-inhibitor catalog; cited from earlier work
smiles,measurement,setting,value
O=C1NC(=O)C(=Cc2ccc(-c3ccc(F)cc3)o2)S1 (stereo in doubt) [CAY10505],inhibition of growth at 5 µM,[1],-7.4%
same,IC50,[2],30 nM
CC(C)N(CC[C@H](c1ccccc1)c1cc(CO)ccc1O)C(C)C [5-hydroxymethyl tolterodine (PNU 200577)],Kb,[3],0.84 nM
same,inhibition of growth at 5 µM,[1],-18.8%
O=C(Nc1ccccc1)Nc1ccc(-c2ccc(C(=O)[C@@H]3CCC[C@@H]3C(=O)O)cc2)cc1 [A 922500],inhibition of growth at 5 µM,[1],2%
same,IC50,[4],7 nM
same,IC50,[5],24 nM
Cc1n[nH]c2ccc(-c3cncc(OC[C@@H](N)Cc4ccccc4)c3)cc12 [A-674563],inhibition of growth at 5 µM,[1],67.7%
same,Ki,[6],16 nM
COc1cc[nH]c2ncc(C(=O)C(=O)N3CCN(C(=O)c4ccccc4)C[C@H]3C)c1-2 [BMS-806 (BMS 378806)],inhibition of growth at 5 µM,[1],0.3%
same,EC50,[7],0.85 to 26.5 nM
NC1(Cc2ccc(Cl)cc2)CCN(c2ncnc3[nH]ccc23)CC1 [CCT128930],inhibition of growth at 5 µM,[1],-25.6%
CCC(C)(Oc1ccc(C2(c3ccc(OC(C)(CC)C(=O)O)cc3)CCCCC2)cc1)C(=O)O (stereo not shown) [Clinofibrate],inhibition of growth at 5 µM,[1],0.1%
same,IC50,[9],470 µM
C[C@@H]1CC[C@@]2(OC1)O[C@H]1C[C@H]3[C@@H]4CC=C5C[C@H](O[C@@H]6O[C@@H](CO)[C@@H](O[C@@H]7O[C@@H](C)[C@H](O)[C@@H](O)[C@@H]7O)[C@H](O)[C@H]6O[C@@H]6O[C@@H](C)[C@H](O)[C@@H](O)[C@H]6O)CC[C@]5(C)[C@@H]4CC[C@]3(C)[C@@H]1[C@H]2C [Dioscin (Collettiside III)],inhibition of growth at 5 µM,[1],4.8%
same,IC50,[10],7.5 µM
same,IC50,[11],2600 nM
same,IC50,[12],4.5 µM
same,IC50,[13],800 nM
CN1CC[C@H](c2c(O)cc(O)c3c(=O)cc(-c4ccccc4Cl)oc23)[C@H](O)C1 [Flavopiridol (Alvocidib) HCl],IC50,[14],[…]
same,inhibition of growth at 5 µM,[1],6.4%
same,IC50,[16],300 nM
COc1cccc(Nc2c(C(N)=O)cnc3c(C)cc(S(=O)(=O)c4cccc(C(=O)N(C)C)c4)cc23)c1 [GSK256066],inhibition of growth at 5 µM,[1],18.7%
same,IC50,[18],3.2 pM
CC(=O)Nc1cccc(-n2c(=O)n(C3CC3)c(=O)c3c(Nc4ccc(I)cc4F)n(C)c(=O)c(C)c32)c1 [GSK1120212 (Trametinib)],inhibition of growth at 5 µM,[1],-8.7%
COc1ncc(-c2ccc3nccc(-c4ccnnc4)c3c2)cc1NS(=O)(=O)c1ccc(F)cc1F [GSK2126458],inhibition of growth at 5 µM,[1],21.3%
O=C(O)Cc1cccc(OCCCN(Cc2cccc(C(F)(F)F)c2Cl)CC(c2ccccc2)c2ccccc2)c1 [GW3965 HCl],EC50,[21],125 nM
same,inhibition of growth at 5 µM,[1],-20.1%
same,EC50,[22],190 nM
c1ccc2c(-c3cnn4cc(-c5ccc(N6CCNCC6)cc5)cnc34)ccnc2c1 [LDN193189],inhibition of growth at 5 µM,[1],21.7%
CC1(C)C(=O)N(CCN2CCC(C(=O)c3ccc(F)cc3)CC2)c2ccccc21 [LY310762],inhibition of growth at 5 µM,[1],1.5%
same,Ki,[25],~200 nM
O=C(O)CC[C@H]1CC[C@@](c2cc(F)ccc2F)(S(=O)(=O)c2ccc(Cl)cc2)CC1 [MK-0752],inhibition of growth at 5 µM,[1],7.5%
same,IC50,[26],5 nM
CN1CCN(c2ccc([N+](=O)[O-])c3no[n+]([O-])c23)CC1 [NSC-207895 (XI-006)],inhibition of growth at 5 µM,[1],0.2%
same,IC50,[27],2500 nM
O=c1cc(N2CCOCC2)oc2c(-c3cccc4c3sc3ccccc34)cccc12 [NU7441 (KU-57788)],inhibition of growth at 5 µM,[1],21.5%
same,IC50,[28],5 µM
same,IC50,[29],14 nM
COc1cccc2cc(-c3nc([C@H]4CC[C@H](C(=O)O)CC4)n4ncnc(N)c34)[nH]c12 [OSI-027],inhibition of growth at 5 µM,[1],31%
same,IC50,[30],65 nM
same,IC50,[31],22 nM
CC1(C)CC(=O)c2c(C(F)(F)F)nn(-c3ccc(C(N)=O)c(N[C@H]4CC[C@H](OC(=O)CN)CC4)c3)c2C1 [PF-04929113 (SNX-5422)],inhibition of growth at 5 µM,[1],4.6%
same,Kd,[32],41 nM
same,IC50,[33],37 nM
COc1cc(OC)c(NC(=O)Nc2cc(C)on2)cc1Cl [PNU-120596],inhibition of growth at 5 µM,[1],-38.8%
same,EC50,[34],216 nM
COc1cc(Nc2ncc(F)c(Nc3ccc4c(n3)N(COP(=O)(O)O)C(=O)C(C)(C)O4)n2)cc(OC)c1OC [R788 (Fostamatinib)],inhibition of growth at 5 µM,[1],27.4%
Cc1cc(OCCCS(C)(=O)=O)cc(C)c1-c1cccc(COc2ccc3c(c2)OC[C@H]3CC(=O)O)c1 [TAK-875],inhibition of growth at 5 µM,[1],-10.4%
Cc1ccccc1C(=O)Nc1ccc(C(=O)N2CCCC(O)c3cc(Cl)ccc32)c(C)c1 (stereo not shown) [Tolvaptan (OPC-41061)],inhibition of growth at 5 µM,[1],-4.3%
same,IC50,[37],1280 nM
NC(=O)c1cccc(-c2cccc(OC(=O)NC3CCCCC3)c2)c1 [URB597],inhibition of growth at 5 µM,[1],2.1%
same,IC50,[38],4.6 nM
COc1ccccc1N1CCN(CCN(C(=O)C2CCCCC2)c2ccccn2)CC1 [WAY-100635 HCl],inhibition of growth at 5 µM,[1],-0.7%
same,IC50,[39],0.95 nM
